Consider two compounds from US7989629B2, “3-(4-{ [4-(4-{ [3-(3, 3-dimethyl-1-piperidinyl) propyl] oxy} phenyl)-1-piperidinyl] carbonyl}-1-naphthalenyl) propanoic or propenoic acid as H1 and H3 receptor antagonists for the treatment of inflammatory and/or allergic disorders” (Glaxo Group Limited, priority 2005, dated 2011).

One data set concerns the target histamine H3 receptor (Homo sapiens, UniProt Q9Y5N1). Briefly: Histamine H3 functional antagonist assay (GTPγS). To be noted: functional antagonism, histamine at EC80; read-out: average pKi (pKb) at H3 (converted). The data set is classed as biochemical. An excerpt: 2. H3 Receptor Cell Line Generation, Membrane Preparation and Functional GTPγS Assay Protocols
Generation of Histamine H3 Cell Line
The histamine H3 cDNA is isolated from its holding vector, pcDNA3.1 TOPO (InVitrogen), by restriction digestion of plasmid DNA with the enzymes BamH1 and Not-1 and ligated into the inducible expression vector pGene (InVitrogen) digested with the same enzymes. The GeneSwitch™ system (a system wherein transgene expression is switched off in the absence of an inducer and switched on in the presence of an inducer) is performed as described in U.S. Pat. Nos. 5,364,791; 5,874,534; and 5,935,934. […]
10-14 days post selection, 10 nM Mifepristone (InVitrogen) is added to the culture medium to induce the expression of the receptor. […] Receptor bound antibody is detected by incubation of the cells for 60 min on ice with a goat anti rabbit antibody, conjugated with Alexa 488 fluorescence marker (Molecular Probes). Following two further washes with Sorting Medium, cells are filtered through a 50 μm Filcon™ (BD Biosciences) and are then analysed on a FACS Vantage SE Flow Cytometer fitted with an Automatic Cell Deposition Unit, Control cells are non-induced cells treated in a similar manner. […]

Data set [1] addresses T1, human H1 receptor (Homo sapiens, UniProt P35367). Nature of the data set: Histamine H1 functional antagonist assay (FLIPR): determination of functional pKi values. The class given is cell-based. To be noted: functional antagonism, CHO cells, histamine at EC80; read-out: average pKi (pKb) at H1 (converted). From the text: H1 Receptor Cell Line Generation and FLIPR Assay Protocol
1. Generation of Histamine H1 Cell Line
(§1) The human H1 receptor may be cloned using known procedures described in the literature [Biochem. Biophys. Res. Commun., 201(2):894 (1994)]. Chinese hamster ovary (CHO) cells stably expressing the human H1 receptor may be generated according to known procedures described in the literature [Br. J. Pharmacol., 117(6):1071 (1996)].
Histamine H1 Functional Antagonist Assay: Determination of Functional pKi Values […]
10 μl of test compound, diluted to the required concentration in Tyrodes buffer+probenecid (or 10 μl Tyrodes buffer+probenecid as a control) is added to each well and the plate incubated for 30 min at 37° C., 5% CO2. The plates are then placed into a FLIPR™ (Molecular Devices, UK) to monitor cell fluorescence (λex=488 nm, λEM=540 nm) in the manner described in Sullivan et al., (In: Lambert D G (ed.), Calcium Signaling Protocols, New Jersey: Humana Press, 1999, 125-136) before and after the addition of 10 μl histamine at a concentration that results in the final assay concentration of histamine being EC80.
Functional antagonism is indicated by a suppression of histamine induced increase in fluorescence, as measured by the FLIPR™ system (Molecular Devices). By means of concentration effect curves, functional affinities are determined using standard pharmacological mathematical analysis.

A short description of another data set: Rat pharmacokinetics. The data set is classed as in vivo. As to the method:
Compounds are dosed to male CD Sprague Dawley rats by single intravenous or oral administration at a nominal dose level of 1 mg/kg and 3 mg/kg respectively. Compounds are formulated in 5% DMSO/45% PEG200/50% water. An intravenous profile is obtained by taking serial or terminal blood samples at 0.083, 0.25, 0.5, 1, 2, 4, and 7 hours post dose (for some studies 12 and 24 hour samples may be taken). An oral profile is obtained by taking serial or terminal blood samples at 0.25, 0.5, 1, 2, 4, 7 and 12 hours post dose (for some studies 24 and 30 hour samples may be taken). Blood samples are taken directly into heparinised tubes. Blood samples are prepared by protein precipitation and subjected to quantitative analysis by LC-MS/MS using compound-specific mass transitions. Drug concentration-time profiles are generated and non-compartmental PK analysis used to generate estimates of half-life, clearance, volume of distribution and oral bioavailability.

A further data set in a line: Dog pharmacokinetics. The class given is in vivo. To be noted: combined data for Example 1 and 3; for half-life / bioavailability: male, Beagle, whole blood; for bioavailability: po, 2 mg/kg. As to the method:
Compounds are dosed to male Beagle dogs by single intravenous or oral administration at a nominal dose level of 1 mg/kg and 2 mg/kg respectively. The study is carried out according to a crossover design such that the same dog is used for both dosing events and the dosing events occurred 1 week apart. Compounds are formulated in 5% DMSO/45% Peg200/50% water. An intravenous profile is obtained by taking serial blood samples at 0.083, 0.25, 0.5, 0.75, 1, 2, 4, 6 and 12 hr post dose (for some studies 24 hour samples may be taken). An oral profile is obtained by taking serial blood samples at 0.25, 0.5, 0.75, 1, 2, 4, 6, 12 and 24 hr post dose. Blood samples are taken directly into heparinised tubes. Blood samples are prepared by protein precipitation and subjected to quantitative analysis by LC-MS/MS using compound-specific mass transitions. Drug concentration-time profiles are generated and non-compartmental PK analysis used to generate estimates of half-life, clearance, volume of distribution and oral bioavailability.

Data set [2] concerns the target T1, human H1 receptor. Nature of the data set: Histamine H1 functional antagonist assay (FLIPR): determination of antagonist pA2. The data set is classed as cell-based. The protocol: as §1
Histamine H1 Functional Antagonist Assay: Determination of Antagonist pA2
The histamine H1 receptor expressing CHO cells is seeded into non-coated black-walled clear bottom 96-well tissue culture plates as described above. […]
The plates are then placed into a FLIPR™ (Molecular Devices, UK) to monitor cell fluorescence (λex=488 nm, λEM=540 nm) in the manner described in Sullivan et al., (In: Lambert D G (ed.), Calcium Signaling Protocols, New Jersey: Humana Press, 1999, 125-136) before and after the addition of 50 μl histamine over a concentration range of 1 mM-0.1 nM. […] The antagonist pA2 is calculated using the following standard equation: pA2=log(DR−1)−log [B] where DR=dose ratio, defined as EC50antagonist-treated/EC50control and [B]=concentration of antagonist.

The next data set relates to histamine-induced wheals. Nature of the data set: In vivo anti-inflammatory wheal and flare model. The arrangement: species or system guinea pig. As to the method: In Vivo Anti-Inflammatory Wheal and Flare Model
Male Dunkin-Hartley guinea pigs 500 g-1 kg are dosed with test compound or vehicle using a 1 ml syringe into the oral cavity (0.5 ml/kg p.o.), or via a marginal ear vein (0.33 ml/kg i.v.). Compounds are formulated in 5% DMSO/45% PEG200/50% water.
Either 2 hr after oral or 15 min after intravenous compound administration, guinea pigs are anaesthetised with isoflurane (5%, […] O2), and receive Evans blue solution (2% in saline), 0.33 ml/kg i.v. via a marginal ear vein.
Immediately after Evans blue administration, and whilst still under isoflurane, animals are placed in a prone position, and an area of the back shaved. […]
Following histamine challenge, the animals are allowed to recover from anaesthesia and, 30 minutes later are euthanased with an i.p. overdose of pentobarbitone. The dorsal skin is carefully removed and wheal areas (stained blue) measured from the inner skin surface by taking two perpendicular diameters using engineer's calipers, and calculating the average radius. This value is used to calculate the area of each wheal, and the mean value of all histamine-induced wheals is subsequently calculated for each animal. […]
Dose-response curves are constructed for each test compound and ID50 values may be determined for each route of administration (oral and intravenous).

SMILES strings stand for the structures.

T1 sequence (P35367 whole entry): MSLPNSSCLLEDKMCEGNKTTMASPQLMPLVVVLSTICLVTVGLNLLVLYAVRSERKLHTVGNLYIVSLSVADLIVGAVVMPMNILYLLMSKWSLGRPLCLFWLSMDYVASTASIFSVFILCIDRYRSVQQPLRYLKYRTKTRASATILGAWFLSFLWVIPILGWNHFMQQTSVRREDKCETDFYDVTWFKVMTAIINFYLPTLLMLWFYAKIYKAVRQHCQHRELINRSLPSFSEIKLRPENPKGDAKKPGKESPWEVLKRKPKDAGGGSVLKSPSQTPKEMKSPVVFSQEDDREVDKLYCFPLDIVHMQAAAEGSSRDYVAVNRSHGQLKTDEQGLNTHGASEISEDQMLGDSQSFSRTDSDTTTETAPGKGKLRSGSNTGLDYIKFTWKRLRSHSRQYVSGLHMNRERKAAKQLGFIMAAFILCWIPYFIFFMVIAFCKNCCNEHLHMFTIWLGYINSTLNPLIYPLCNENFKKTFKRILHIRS
histamine H3 receptor, sequence (Q9Y5N1 whole entry, species assumed): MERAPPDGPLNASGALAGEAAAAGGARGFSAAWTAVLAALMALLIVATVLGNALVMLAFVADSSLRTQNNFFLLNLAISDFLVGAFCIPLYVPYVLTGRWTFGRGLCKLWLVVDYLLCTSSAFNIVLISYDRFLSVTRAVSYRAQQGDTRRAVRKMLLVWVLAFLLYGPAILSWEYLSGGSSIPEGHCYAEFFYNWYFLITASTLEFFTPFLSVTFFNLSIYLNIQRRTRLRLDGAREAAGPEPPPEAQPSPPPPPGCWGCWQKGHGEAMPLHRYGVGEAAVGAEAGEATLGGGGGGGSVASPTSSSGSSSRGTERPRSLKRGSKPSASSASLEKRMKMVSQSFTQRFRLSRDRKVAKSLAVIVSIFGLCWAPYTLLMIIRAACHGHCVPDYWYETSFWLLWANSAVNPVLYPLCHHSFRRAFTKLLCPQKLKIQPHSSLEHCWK

As for `CC1(C)CCCN(CCCOc2ccc(C3CCN(C(=O)c4ccc(CCC(=O)O)c5ccccc45)CC3)cc2)C1` [Example 1, 3-(4-{[4-(4-{[3-(3,3-dimethyl-1-piperidinyl)propyl]oxy}phenyl)-1-piperidinyl]carbonyl}-1-naphthalenyl)propanoic acid, formic acid (1:1)], the Ki on histamine H3 receptor was about 39.8 nM; on human H1 receptor [1], about 15.8 nM. The plasma clearance result in the data set “Rat pharmacokinetics” and in “Dog pharmacokinetics” was “low” each time. In addition, the half-life (commonly the time in which the quantity being followed falls by half) in the data set “Rat pharmacokinetics” (male, CD Sprague Dawley, whole blood, 1 mg/kg, IV route) was 4 to 5 h; in the data set “Dog pharmacokinetics” it was about 3 h. The bioavailability (usually the share of a dose that reaches the circulation, judged against a reference dose that is usually intravenous) in the data set “Rat pharmacokinetics” (male, CD Sprague Dawley, whole blood, po, 3 mg/kg) was about 59%; in the data set “Dog pharmacokinetics”, about 60%.

For `CC1(C)CCCN(CCCOc2ccc(C3CCN(C(=O)c4ccc(CCC(=O)O)c5ccccc45)CC3)cc2)C1.Cl` [Example 3, 3-(4-{[4-(4-{[3-(3,3-dimethyl-1-piperidinyl)propyl]oxy}phenyl)-1-piperidinyl]carbonyl}-1-naphthalenyl)propanoic acid, hydrochloride salt], on histamine H3 receptor, the Ki was about 50.1 nM. On human H1 receptor [1], the Ki was about 12.6 nM. For the same compound, the antagonist dissociation constant (Kb) – broadly, the affinity of an antagonist, worked out from how it opposes an agonist – on human H1 receptor [2] was about 7.94 nM. Besides, the “ID50 in the wheal and flare model” value in the data set with histamine-induced wheals (i.v.) is recorded as “about 0.6 mg/Kg”. In addition, the “ID50 in the wheal and flare model” value with histamine-induced wheals (oral) was “about 2.8 mg/Kg”. Moreover, in “Dog pharmacokinetics”, the plasma clearance result is on record as “low”, the half-life is about 3 h and the bioavailability was about 60%.
